Assays:
[1] = NOVARTIS: Cytotoxicity against human hepatocellular carcinoma cell line (Huh7); type: toxicity, cell-based, Huh-7; details: Huh7 cells (hepatocellular carcinoma cell line)
[2] = system: Plasmodium falciparum; assay: NOVARTIS: Inhibition of Plasmodium falciparum W2 (drug-resistant) proliferation in erythrocyte-based infection assay; type: functional, organism-based; details: Plasmodium falciparum, W2; read-out: EC50
[3] = system: Plasmodium falciparum; assay: NOVARTIS: Inhibition of Plasmodium falciparum 3D7 (drug-susceptible) proliferation in erythrocyte-based infection assay; type: functional, organism-based; details: Plasmodium falciparum, 3D7

| SMILES | CC50 [1] [nM] | EC50 [2] [nM] | EC50 [3] [nM] |
| --- | --- | --- | --- |
| O=C(Nc1ccccc1)c1ccccc1OCC(O)Cn1c2ccccc2c2ccccc21 (stereo not given) | > 100000 | 267 | 282 |
| CC(C)C1N=C2c3ccccc3N=C(SCC(=O)Nc3cc(C(F)(F)F)ccc3Cl)N2C1=O (stereo not given) | > 100000 | > 12500 | 5910 |
| O=C(COc1ccc(Cl)cc1)N1CCCn2cccc2C1c1ccc(Cl)cc1 (stereo not given) | > 10000 | 108 | 631 |
| CCc1ccc(N(C(=O)CCN2CCc3ccccc32)C(C(=O)NCc2ccccc2)c2ccc(OC)c(OC)c2)cc1 (stereo not given) | > 100000 | 4450 | 5080 |
| COc1ccccc1NC(=S)N1CCN(c2ccc([N+](=O)[O-])cc2)CC1 | > 100000 | 113 | 577 |
| Cc1cc(NS(=O)(=O)c2ccc(NC(=O)c3ccc([N+](=O)[O-])cc3)cc2)no1 | > 10000 | > 678 | > 1250 |
| Cc1cc(N2CCN(C)CC2)nc2ccc(NC(=O)Nc3ccccc3Cl)cc12 | > 100000 | 2060 | 3100 |
| C(=NNc1nc2ccccc2[nH]1)c1c[nH]c2ccccc12 | 19200 | 391 | 330 |
| CN1C(=O)N(C)C2(c3ccccc3)NN3C(=NC12c1ccccc1)SC1=C3C(=O)c2ccccc2C1=O (stereo not given) | > 100000 | 95.5 | 2830 |
| CCc1c(C#N)c(N)nc(SCC(=O)c2ccc(C)cc2C)c1C#N | > 100000 | 196 | 308 |
| Cc1ccnc(NC(c2cccc(Cl)c2Cl)c2ccc3cccnc3c2O)c1 (stereo not given) | > 49000 | 144 | 152 |
| CC(C)CN(CC(=O)N1CCC(Nc2nsc3ccccc23)C1)S(C)(=O)=O (stereo not given) | 15700 | 3940 | 1980 |
| CC(NCCN1CCNCC1)c1cc(C(C)(C)C)cc2c1CCC2(C)C (stereo not given) | 6720 | 586 | 598 |
| C=C(C)[C@@H]1CC=C(CN2C[C@H](NC(=O)c3ccc(OC)cc3OC)C[C@H]2C(=O)OC)CC1 | > 10000 | 409 | 815 |
| Cc1ccc(-c2nn(-c3ccccc3)c3[nH]c(=O)c(CNCc4ccccc4)cc23)cc1 | > 100000 | 467 | 1610 |
| CC(C)(C)C(=O)Cn1ccc(=N)c2ccccc21 | > 100000 | 877 | 2030 |
| CCCOC(=O)C1=C(C)NC2=C(C(=O)CC(c3ccc(OC)cc3)C2)C1c1cccc(F)c1 (stereo not given) | > 100000 | 32.9 | 72.4 |
| O=C1Nc2ccc(Br)cc2C12NCCc1c2[nH]c2ccccc12 (stereo not given) | 42200 | 111 | 198 |
| COc1ccc(-c2ccc(C(=O)N(C)Cc3cscn3)c(N3CCC(N4CCc5ccccc5C4)CC3)n2)cc1 | > 10000 | 1750 | > 1250 |
| Cc1ccc(C(=O)Oc2ccccc2-c2nc3ccccn3c2NC(C)(C)CC(C)(C)C)cc1[N+](=O)[O-] | > 10000 | 67.5 | 1240 |
| COc1cc(NC(C)=C2C(=O)c3ccccc3C2=O)c(OC)cc1Cl | > 100000 | 1040 | 2400 |
| OC(CN1CCN(C/C=C/c2ccccc2)CC1)Cn1c2ccc(Br)cc2c2cc(Br)ccc21 (stereo not given) | > 10000 | 19.2 | 589 |
| O=C(Cc1ccccc1)NCCCCNc1ccnc2cc(Cl)ccc12 | > 9600 | 316 | 330 |
| Nc1cc2c(cc1Br)CCCC2 | > 10000 | > 1470 | > 1030 |
| COc1ccc(CCN2C(=O)c3ccc(Oc4ccc(NC(=O)c5oc(=O)c6ccccc6c5-c5ccccc5)cc4)cc3C2=O)cc1OC | > 100000 | 4800 | > 12500 |

| SMILES | CC50 [1] [nM] | EC50 [2] [nM] | EC50 [3] [nM] |
| --- | --- | --- | --- |
| COc1ccc(-c2c[n+](CC(=O)c3ccccc3)c3n2CCC3)cc1 | > 100000 | 571 | 1200 |
| Cn1c2c([n+](C)c1CCl)C(=O)c1ccccc1C2=O | > 10000 | 3.55 | 3.1 |
| Nc1ccc(N2CCCCCC2)cc1 | > 100000 | 183 | 153 |
| c1ccc2cc3c(Nc4ccc(N5CCOCC5)cc4)ccnc3cc2c1 | 69500 | 83.9 | 672 |
| Cc1cc2c(Nc3cccc(Cl)c3C)ncnc2s1 | > 100000 | 1190 | 1910 |
| CC(=O)c1cccc(NC(=O)NC2CC3CCCC(C2)N3CCc2ccccc2)c1 (stereo not given) | > 10000 | 12.6 | 17.3 |
| Oc1ccccc1CN1CCN(C(c2ccccc2)c2ccccc2)CC1 | 8920 | 166 | 744 |
| CCCCCCN(C(=O)c1ccc(CC)cc1)C(CC)c1nc2ccccc2c(=O)n1-c1cccc(Cl)c1 (stereo not given) | > 10000 | 782 | 781 |
| C1=C(c2ccc(CN3CCCCC3)cc2)N2CCN=C2c2ccccc21 | 4140 | 579 | 278 |
| CN(CC(=O)NC(C)(C)C)S(=O)(=O)c1ccccc1 | > 10000 | > 1000 | > 1250 |
| CC1(C)CC(=O)c2cc(-c3ccc(Br)cc3)n(-c3ccccc3F)c2C1 | > 10000 | > 1250 | > 972 |
| COc1ccc2cc(CNCCc3cccc(Cl)c3)c(N3CCC(=O)N(CCN(C)C)CC3)nc2c1 | > 10000 | 77.2 | > 1250 |
| CCOC(=O)c1c(NC(=O)CSc2nnc(CNC(=O)c3cccs3)n2-c2ccccc2OC)sc2c1CCC2 | > 10000 | > 982 | > 619 |
| Cn1c(=O)c(Cl)c2c3c(c(Cl)ccc31)C(=O)c1ccccc1-2 | > 10000 | > 1250 | > 297 |
| Cc1c2c(cc3c1ccc1ccccc13)C[N+]1(CCCCC1)C2 | > 100000 | 657 | 1290 |
| Cn1c(SCC(=O)Nc2cccc(F)c2)nc2c(c1=O)SCC2 | > 100000 | 2150 | 2380 |
| Oc1ccc(-c2cncnc2)cc1CNC1CCN(Cc2ccccc2)CC1 | > 100000 | 671 | 698 |
| COC(=O)C1=C(C)NC2=C(C(=O)CC(c3ccc(OC)cc3)C2)C1c1ccccc1F (stereo not given) | > 100000 | 88.4 | 231 |
| c1ccc(C2CC(C3CC(c4ccccc4)OC(c4ccccc4)C3)CC(c3ccccc3)O2)cc1 (stereo not given) | > 10000 | 394 | 1240 |
| CCN1/C(=C/C(=C/c2sc3ccccc3[n+]2CC)NC)Sc2ccccc21 | > 10000 | > 422 | > 1250 |
| Cc1cc(C)n(N=Cc2cccc(Cl)c2)c(=O)c1C#N | > 100000 | 9060 | > 12500 |
| O=C(NCCCCNc1ccnc2cc(Cl)ccc12)c1cccc(Br)c1 | > 10000 | 453 | 422 |
| C[C@H]1[C@@H](O)O[C@@H]2O[C@@]3(C)CC[C@H]4[C@H](C)CC[C@@H]1[C@@]24OO3 [ARTENIMOL] | 44900 | 7.1 | 11.8 |
| CCC(=O)NC(c1cccc([N+](=O)[O-])c1)c1ccc2cccnc2c1O (stereo not given) | > 100000 | 2600 | 3420 |
| O=C(NCCC1=CCCCC1)c1ccc2c(=O)n(-c3ccccc3)c(SCc3nc4ccccc4[nH]3)nc2c1 | > 912 | 1460 | > 1250 |
